Assay results published in article PMC6410164, “Isolation and Structure-Activity Relationship of Subergorgic Acid and Synthesis of Its Derivatives as Antifouling Agent” (Marine Drugs, 2019).
In brackets after ≈: the same amount, converted by molar mass. Read-outs that look alike come from different tables or passages of the source.

Assays:
B. amphitrite [1] = test: Larval settlement (antifouling) assay with cyprids of the barnacle B. amphitrite; format: in vivo, Balanus amphitrite; conditions: Amphibalanus amphitrite, 48 h, read-out: EC50 (μg/mL), inhibition of settlement of B. amphitrite
Method: The antifouling activity was examined using cyprids of the barnacle B. amphitrite Darwin according to the method reported previously. Briefly, adults of B. amphitrite, collected from the intertidal zone in Hong Kong, were exposed to air for more than 6 h, and were then placed in a container filled with 0.22 µm filtered seawater (FSW) to release nauplii. The collected nauplii were raised to cyprid stage using the method described by Thiyagarajan et al.. Fresh cyprids were used in the test. Larval settlement assays were examined using 24-well polystyrene plates. The tested samples were first dissolved with small amount of dimethyl sulfoxide (DMSO) and then diluted with FSW to achieve final concentrations at 25.0, 12.5, 6.25, 3.13, 1.57, 0.78, 0.39, 0.19, 0.1, and 0.05 µg/mL. About 15−20 competent larvae were added to each well containing 1 mL of test solution in triplicate, and wells containing only FSW, DMSO, and larvae served as a control. The plates were incubated at 25 °C for 48 h. The effects of the test samples against biofouling were determined by examining the plates under a microscope to count settled, unsettled, and swimming larvae, and where appropriate, potential toxic effects were recorded. The number of settled larvae was expressed as a percentage of the total number of larvae per well. Three replicates of each treatment were performed. A concentration-response curve was then made and a trend line was constructed for each compound. EC50 was calculated as the concentration where 50% of the larval individual was inhibited to settle as compared to the control while LC50 was calculated as the concentration where 50% of the larval population was dead. […] For the purposes of this study, adults of the barnacle B. amphitrite were scraped off from the concrete posts at a pier of Pak Sha Wan, Kowloon, Hong Kong (22°21′45″N, 114°15′35″E), where only limited quantity of B. amphitrite could be collected during the period of our experiment because of the relatively hot weather and artificial disturbing of nearby construction work.

[2] = Toxicity toward larvae in the settlement assay (LC50); conditions: Balanus amphitrite (barnacle), cyprid larvae, in vivo, other: immersion of larvae in test solution, B. amphitrite larvae, highest concentration tested 25 μg/mL
Method: The antifouling activity was examined using cyprids of the barnacle B. amphitrite Darwin according to the method reported previously. Briefly, adults of B. amphitrite, collected from the intertidal zone in Hong Kong, were exposed to air for more than 6 h, and were then placed in a container filled with 0.22 µm filtered seawater (FSW) to release nauplii. The collected nauplii were raised to cyprid stage using the method described by Thiyagarajan et al.. Fresh cyprids were used in the test. Larval settlement assays were examined using 24-well polystyrene plates. […] About 15−20 competent larvae were added to each well containing 1 mL of test solution in triplicate, and wells containing only FSW, DMSO, and larvae served as a control. The plates were incubated at 25 °C for 48 h. The effects of the test samples against biofouling were determined by examining the plates under a microscope to count settled, unsettled, and swimming larvae, and where appropriate, potential toxic effects were recorded. The number of settled larvae was expressed as a percentage of the total number of larvae per well. Three replicates of each treatment were performed. A concentration-response curve was then made and a trend line was constructed for each compound.

barnacle larvae = conditions: cited from earlier work
[3] = test system: naupliar larvae of several barnacles; design: method as in PMID 12031437; conditions: cited from earlier work
B. amphitrite [4] = conditions: reported by Qi et al. ref 21; cited from earlier work
B. amphitrite [5] = test system: B. amphitrite; design: method as in PMID 18075899; conditions: reported by Qi et al. ref 21; cited from earlier work
[6] = cyprids, 24-well plates, 25 °C, average of triplicate ± SD, highest concentration 25 μg/mL

COC(=O)C1=CC2(C)CCC3C(C)CC(=O)C32C1C (stereo not drawn) [Compound 1]
EC50 (B. amphitrite [1]; [6]): 3.16 ± 0.18 µg/mL (≈ 12 µM)
LC50 at 48 h [2]: > 25 µg/mL

OCc1cc(O)cc(Cl)c1O [3-chloro-2,5-dihydroxybenzylalcohol]
EC50, settlement inhibition against barnacle larvae (barnacle larvae): 3.19 to 3.81 µg/mL

O=C1O[C@@H](Cc2ccccc2)C(Cc2ccccc2)=C1Cc1ccccc1 [Maculalactone A]
EC50 against naupliar larvae of several barnacles [3]: 1.1 to 5.2 µg/mL

CC1CC(=O)C23C(C)C(C(=O)O)=CC2(C)CCC13 (stereo not drawn) [SA, subergorgic acid]
LC50 (B. amphitrite [4]): > 200 µg/mL
EC50 (B. amphitrite [1]): 1.25 ± 0.14 µg/mL (≈ 5.03 µM)
EC50, settlement of B. amphitrite (B. amphitrite [5]): 1.2 µg/mL
LC50 at 48 h [2]: > 25 µg/mL

CC1CC(O)C23C(C)C(C(=O)O)=CC2(C)CCC13 (stereo not drawn) [Compound 3]
EC50 (B. amphitrite [1]; [6]): > 25 µg/mL
LC50 at 48 h [2]: > 25 µg/mL

Oc1c(Br)cc(Br)cc1Cc1ccc(Br)cc1Br [2,4-dibromo-6-(2,4-dibromobenzyl)phenol]
EC50 (barnacle larvae; read-out: EC50, settlement inhibition against barnacle larvae): 1260 nM

CC1CC(=O)C23C1CCC2(C)C1OC1(C(=O)O)C3C (stereo not drawn) [Compound 4]
EC50 (B. amphitrite [1]; [6]): > 25 µg/mL
LC50 at 48 h [2]: > 25 µg/mL

COC(=O)C1=CC2(C)CCC3C(C)CC(O)C32C1C (stereo not drawn) [Compound 2]
EC50 (B. amphitrite [1]; [6]): 10 ± 0.13 µg/mL (≈ 37.9 µM)
LC50 at 48 h [2]: > 25 µg/mL
